Measured values reported in paper PMC5515969, “Effects of 31 FDA approved small-molecule kinase inhibitors on isolated rat liver mitochondria” (Archives of Toxicology, 2016).
Read-outs that look alike come from different tables or passages of the source. Marks after values point to notes of the source that are not given here.

Assays:
[1] = cited from earlier work
[2] = system: isolated rat liver mitochondria; test: Mitochondrial inner membrane potential (MMP), Rhodamine 123; assay type: biochemical
Excerpt: Fig. 3 KI effects on mitochondrial inner membrane potential (MMP). […] In a, c, data are means and standard derivations from three separate experiments. *p < 0.05 as compared to DMSO-treated samples at the end of experiments. In b, data are means of two independent experiments

[3] = molecular target: T1, RCC II (Rattus norvegicus, UniProt P21913+Q641Z9+Q6PCT8+Q920L2); test: RCC II activity in submitochondrial particles; assay type: biochemical; design: key: activity relative to DMSO-treated controls (control set as 1 = 100%); conditions: DMSO treated samples set as 1
T1 construct: Submitochondrial particles were prepared by subjecting the intact mitochondria to three successive freeze–thaw cycles; from tissue; host or cells: rat liver mitochondria, used as submitochondrial particles
How it was run: (§1)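 First, submitochondrial particles (1 mg/ml) are incubated with inhibitor for 15 min. Next, complex activities are followed spectrophotometrically, with RCC I taken as the difference between buffers lacking and containing rotenone. Finally, activities are expressed relative to DMSO controls set at 1.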

[4] = system: RCC III; test: RCC III activity in submitochondrial particles; assay type: biochemical, rat; design: key to RCC III at 100XCmax: activity relative to DMSO-treated controls (control set as 1 = 100%); conditions: for RCC activity III: 15 min, DMSO-treated = 100
How it was run: as §1

[5] = system: RCC IV; test: RCC IV activity in submitochondrial particles; assay type: biochemical, rat; design: key to RCC IV at 50XCmax / RCC IV at 100XCmax: activity relative to DMSO-treated controls (control set as 1 = 100%); conditions: for RCC activity IV: 15 min, DMSO-treated = 100
How it was run: as §1

[6] = system: RCC V; test: RCC V activity in submitochondrial particles; assay type: biochemical, rat; conditions: for RCC activity V: 15 min, DMSO-treated = 100; for RCC V at 5XCmax: key: 0 indicates that the drug had no effects (negative)
How it was run: as §1

[7] = system: isolated rat liver mitochondria; test: Mitochondrial oxygen consumption (glutamate/malate or succinate driven, state 4 and state 3); assay type: biochemical; conditions: for Glutamate/malate driven respiration State 3 / Glutamate/malate driven respiration State 4 / Succinate-driven respiration State 3 / Succinate-driven respiration State 4: oxygen consumption, DMSO-treated = 1; for State 3 respiration driven by succinate at 10XCmax: key: 0 indicates that the drug had no effects (negative); for State 3 respiration driven by succinate at 1XCmax: key: 0 indicates that the drug had no effects (negative)
How it was run: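 Rat liver mitochondria (1 mg/ml protein) exposed 5 min to kinase inhibitors in 0.1% DMSO, then O2 consumption measured by Clark-type electrode with glutamate/malate or succinate (state 4), ADP added after 3 min (state 3). Rates normalized to 0.1% DMSO controls set to 1.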

[8] = system: isolated rat liver mitochondria; test: Mitochondrial ROS production (CM-H2DCFDA)
[9] = system: isolated rat liver mitochondria
[10] = 5XCmax, DMSO treated samples set as 1
[11] = 50XCmax, DMSO treated samples set as 1
[12] = 100XCmax, DMSO treated samples set as 1
[13] = 1XCmax, DMSO treated samples set as 1
[14] = 2.5XCmax, DMSO treated samples set as 1
[15] = 10XCmax, DMSO treated samples set as 1
[16] = 20XCmax, DMSO treated samples set as 1
[17] = 30XCmax, DMSO treated samples set as 1

T1 sequence (Q920L2 35-656): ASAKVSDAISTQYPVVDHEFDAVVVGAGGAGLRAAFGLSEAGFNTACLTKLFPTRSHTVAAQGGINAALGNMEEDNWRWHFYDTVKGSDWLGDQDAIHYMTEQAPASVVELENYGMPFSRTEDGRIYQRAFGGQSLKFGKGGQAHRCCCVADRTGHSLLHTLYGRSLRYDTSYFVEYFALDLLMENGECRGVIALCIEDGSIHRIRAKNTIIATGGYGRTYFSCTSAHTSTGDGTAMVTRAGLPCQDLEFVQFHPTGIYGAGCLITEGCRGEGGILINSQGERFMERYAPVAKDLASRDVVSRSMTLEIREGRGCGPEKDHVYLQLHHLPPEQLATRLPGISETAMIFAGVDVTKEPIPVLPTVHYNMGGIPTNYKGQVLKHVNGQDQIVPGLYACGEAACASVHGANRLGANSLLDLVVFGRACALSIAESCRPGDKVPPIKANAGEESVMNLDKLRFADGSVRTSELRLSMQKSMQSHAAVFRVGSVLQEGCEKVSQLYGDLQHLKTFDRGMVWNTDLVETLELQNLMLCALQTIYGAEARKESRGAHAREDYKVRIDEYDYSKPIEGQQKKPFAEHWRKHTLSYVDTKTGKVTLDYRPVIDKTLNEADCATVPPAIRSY
T1 sequence (P21913 31-282): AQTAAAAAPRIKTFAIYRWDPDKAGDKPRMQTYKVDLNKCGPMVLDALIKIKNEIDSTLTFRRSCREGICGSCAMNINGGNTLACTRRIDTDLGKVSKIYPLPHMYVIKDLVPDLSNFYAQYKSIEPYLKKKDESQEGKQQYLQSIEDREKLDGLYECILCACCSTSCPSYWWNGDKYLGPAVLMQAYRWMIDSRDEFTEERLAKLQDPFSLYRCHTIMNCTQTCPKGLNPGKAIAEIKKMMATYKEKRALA
T1 sequence (Q641Z9 1-169): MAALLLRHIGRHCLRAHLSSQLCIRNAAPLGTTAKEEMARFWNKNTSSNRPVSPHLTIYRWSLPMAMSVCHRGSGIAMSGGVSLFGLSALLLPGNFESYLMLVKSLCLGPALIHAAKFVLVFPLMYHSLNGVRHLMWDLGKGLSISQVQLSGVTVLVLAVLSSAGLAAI
T1 sequence (Q6PCT8 57-159): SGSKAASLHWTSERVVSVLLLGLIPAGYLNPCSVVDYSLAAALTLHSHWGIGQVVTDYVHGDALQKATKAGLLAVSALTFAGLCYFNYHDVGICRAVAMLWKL

## Cc1cc(Nc2ncc(Cl)c(Nc3ccccc3S(=O)(=O)C(C)C)n2)c(OC(C)C)cc1C1CCNCC1 [Ceritinib]
[1]; 1 DILI positive, 0 negative according to labeling, ref product labeling
  DILI potential (based on labeling): 1
[1]; BBW: black box warning, W&P: Warnings and Precautions, ref product labeling
  Labeling for DILI: W&P: ALT↑
[1]; W&P warnings and precautions, BBW black box warnings, ref FDA product labeling
  labeling for DILI: W&P: ALT↑/monitoring
[1]; ref FDA product labeling
  DILI potential (based on labeling): 1
[2]
  lowest concentration decreasing MMP: 100 fold Cmax
[2]; 1XCmax, difference in signal between KI and DMSO treated samples at the end of experiments
  MMP measured by Rhodamine 123 at 1XCmax: 0
[2]; 2.5XCmax, difference in signal between KI and DMSO treated samples at the end of experiments
  MMP measured by Rhodamine 123 at 2.5XCmax: 0
[2]; 5XCmax, difference in signal between KI and DMSO treated samples at the end of experiments
  MMP measured by Rhodamine 123 at 5XCmax: 0
[2]; 10XCmax, difference in signal between KI and DMSO treated samples at the end of experiments
  MMP measured by Rhodamine 123 at 10XCmax: 0
[2]; 20XCmax, difference in signal between KI and DMSO treated samples at the end of experiments
  MMP measured by Rhodamine 123 at 20XCmax: 0
[2]; 30XCmax, difference in signal between KI and DMSO treated samples at the end of experiments
  MMP measured by Rhodamine 123 at 30XCmax: 0
[2]; 50XCmax, difference in signal between KI and DMSO treated samples at the end of experiments
  MMP measured by Rhodamine 123 at 50XCmax: 0
[2]; 100XCmax, difference in signal between KI and DMSO treated samples at the end of experiments
  MMP measured by Rhodamine 123 at 100XCmax: 4568±757*
[2]; up to 100-fold Cmax or highest testable concentration
  effect on MMP: decrease in MMP
[3]; 1.0XCmax
  RCC II at 1.0XCmax: 0
[3]; 2.5XCmax
  RCC II at 2.5XCmax: 0
[3]; 5XCmax
  RCC II at 5XCmax: 0
[3]; 10XCmax
  RCC II at 10XCmax: 0
[3]; 20XCmax
  RCC II at 20XCmax: 0
[3]; 30XCmax
  RCC II at 30XCmax: 0
[3]; 50XCmax
  RCC II at 50XCmax: 0
[3]; 100XCmax
  RCC II at 100XCmax: 69.91±10.00
[4]; 50-fold Cmax
  RCC activity III: 103.80 ± 5.19 % of control
[4]; 100-fold Cmax
  RCC activity III: 68.48 ± 6.59 % of control
[4]; 100XCmax
  RCC III at 100XCmax: 68.48±6.59
[5]; 50-fold Cmax
  RCC activity IV: 82.33 ± 3.68 % of control
[5]; 50XCmax, DMSO treated samples set as 1, in %
  RCC IV at 50XCmax: 82.33±3.68
[5]; 100-fold Cmax
  RCC activity IV: 71.46 ± 7.39 % of control
[5]; 100XCmax
  RCC IV at 100XCmax: 71.46±7.39
[6]; [10]
  RCC V at 5XCmax: 0
[6]; 50-fold Cmax
  RCC activity V: 71.23 ± 9.65 % of control
[6]; [11]
  RCC V at 50XCmax: 71.23±9.65
[6]; 100-fold Cmax
  RCC activity V: 34.25 ± 2.09 % of control
[6]; [12]
  RCC V at 100XCmax: 34.25±2.09
[7]; [13]
  State 3 respiration driven by glutamate/malate at 1XCmax: 0
  State 3 respiration driven by succinate at 1XCmax: 0
  State 4 respiration driven by glutamate/malate at 1XCmax: 0
  State 4 respiration driven by succinate at 1XCmax: 0
[7]; [14]
  State 3 respiration driven by glutamate/malate at 2.5XCmax: 0
  State 3 respiration driven by succinate at 2.5XCmax: 0
  State 4 respiration driven by glutamate/malate at 2.5XCmax: 0
  State 4 respiration driven by succinate at 2.5XCmax: 0
[7]; [10]
  State 3 respiration driven by glutamate/malate at 5XCmax: 0
  State 3 respiration driven by succinate at 5XCmax: 0
  State 4 respiration driven by glutamate/malate at 5XCmax: 0
  State 4 respiration driven by succinate at 5XCmax: 0
[7]; [15]
  State 3 respiration driven by glutamate/malate at 10XCmax: 0
  State 3 respiration driven by succinate at 10XCmax: 0
  State 4 respiration driven by glutamate/malate at 10XCmax: 0
  State 4 respiration driven by succinate at 10XCmax: 0
[7]; [16]
  State 3 respiration driven by glutamate/malate at 20XCmax: 0
  State 3 respiration driven by succinate at 20XCmax: 0
  State 4 respiration driven by glutamate/malate at 20XCmax: 0
  State 4 respiration driven by succinate at 20XCmax: 0
[7]; 30-fold Cmax
  Glutamate/malate driven respiration State 3: 0.88 ± 0.05
  Glutamate/malate driven respiration State 4: 1.12 ± 0.13
  Succinate-driven respiration State 3: 0.41 ± 0.18
  Succinate-driven respiration State 4: 0.70 ± 0.12
[7]; [17]
  State 3 respiration driven by glutamate/malate at 30XCmax: 0
  State 3 respiration driven by succinate at 30XCmax: 0.41±0.18
  State 4 respiration driven by glutamate/malate at 30XCmax: 0
  State 4 respiration driven by succinate at 30XCmax: 0.70±0.12
[7]; 50-fold Cmax
  Glutamate/malate driven respiration State 3: 0.55 ± 0.03
  Glutamate/malate driven respiration State 4: 1.21 ± 0.12
  Succinate-driven respiration State 3: 0.45 ± 0.08
  Succinate-driven respiration State 4: 0.77 ± 0.07
[7]; [11]
  State 3 respiration driven by glutamate/malate at 50XCmax: 0.55±0.03
  State 3 respiration driven by succinate at 50XCmax: 0.45±0.08
  State 4 respiration driven by glutamate/malate at 50XCmax: 1.21±0.12
  State 4 respiration driven by succinate at 50XCmax: 0.77±0.07
[7]; 100-fold Cmax
  inhibition of mitochondrial oxygen consumption: ~100%
  Glutamate/malate driven respiration State 3: 0.08 ± 0.02
  Glutamate/malate driven respiration State 4: 0.50 ± 0.06
  Succinate-driven respiration State 3: 0.03 ± 0.02
  Succinate-driven respiration State 4: 0.17 ± 0.10
[7]; [12]
  State 3 respiration driven by glutamate/malate at 100XCmax: 0.08±0.02
  State 3 respiration driven by succinate at 100XCmax: 0.03±0.02
  State 4 respiration driven by glutamate/malate at 100XCmax: 0.50±0.06
  State 4 respiration driven by succinate at 100XCmax: 0.17±0.10
[7]; tested at 1 to 100-fold Cmax
  lowest concentration significantly affecting mitochondrial oxygen consumption: 30 fold Cmax
[8]
  lowest concentration triggering ROS overproduction: 50 fold Cmax
[8]; [13]
  ROS measured by CM-H2DCFDA at 1XCmax: 0
[8]; [14]
  ROS measured by CM-H2DCFDA at 2.5XCmax: 0
[8]; [10]
  ROS measured by CM-H2DCFDA at 5XCmax: 0
[8]; [15]
  ROS measured by CM-H2DCFDA at 10XCmax: 0
[8]; [16]
  ROS measured by CM-H2DCFDA at 20XCmax: 0
[8]; [17]
  ROS measured by CM-H2DCFDA at 30XCmax: 0
[8]; [11]
  ROS measured by CM-H2DCFDA at 50XCmax: 2.51±0.21
[8]; [12]
  ROS measured by CM-H2DCFDA at 100XCmax: 1.93±0.49
[8]; highest tested concentrations
  effect on ROS production: significantly ROS production
[9]; 1XCmax, positive control alamethicin treated samples
  Cytochrome c release 1XCmax: 0
[9]; 2.5XCmax, positive control alamethicin treated samples
  Cytochrome c release 2.5XCmax: 0
[9]; 5XCmax, positive control alamethicin treated samples
  Cytochrome c release 5XCmax: 0
[9]; 10XCmax, positive control alamethicin treated samples
  Cytochrome c release 10XCmax: 0
[9]; 20XCmax, positive control alamethicin treated samples
  Cytochrome c release 20XCmax: 0
[9]; 30XCmax, positive control alamethicin treated samples
  Cytochrome c release 30XCmax: 0
[9]; 50XCmax, positive control alamethicin treated samples
  Cytochrome c release 50XCmax: 11.93±0.58 percentage of the positive control group
[9]; 100-fold Cmax, alamethicin = 100
  total cytochrome c leaked after treatment: 33%
[9]; 100XCmax, positive control alamethicin treated samples
  Cytochrome c release 100XCmax: 32.92±4.32 percentage of the positive control group
[9]; rat, 30 min, pH 7.4
  lowest concentration causing cytochrome c release: 50 fold Cmax
